Laboratory results published in ChEMBL document CHEMBL1155035, “Cyathuscavins A, B, and C, new free radical scavengers with DNA protection activity from the Basidiomycete Cyathus stercoreus” (Bioorg Med Chem Lett, 2008).
Activity calls are given as the source filed them. No cut-off for these calls is given here.

Experiments:
[1] = test system: Radical scavenging activity; assay: Antioxidant activity assessed as DPPH radical scavenging activity after 10 mins; type: functional
[2] = Antioxidant activity assessed as ABTS radical scavenging activity after 12 hrs; type: functional
[3] = Antioxidant activity assessed as superoxide radical anion scavenging activity after 8 mins; type: functional
[4] = Protective effect against Fe2+/H2O2 radical-induced supercoiled DNA breakage at 1 mM

Compound	EC50 [1]	EC50 [2]	Activity [3]	Activity [4]	EC50 [3]
C/C=C/c1cc(O)cc(=O)o1	> 100 µM	> 50 µM	inactive	–	–
C/C=C/c1cc2c(c(=O)o1)-c1c(O)c(O)c(OC)c(C(=O)O)c1CO2 [CYATHUSCAVIN A]	19.3 µM	14.8 µM	–	70%	21.9 µM
C/C=C/c1cc2c(c(=O)o1)-c1c(O)c(O)c(OC)c(C(=O)O)c1C(OC)O2 (stereo not drawn) [CYATHUSCAVIN B]	13.9 µM	9.84 µM	–	90%	25.1 µM
C/C=C/c1cc2c(c(=O)o1)-c1c(O)c(O)c(OC)c(C(=O)O)c1C(O)O2 (stereo not drawn) [CYATHUSCAVIN C]	19.6 µM	7.08 µM	inactive	70%	–
Cc1c(C)c2c(c(C)c1O)CCC(C)(C(=O)O)O2 (stereo not drawn) [TROLOX]	22.1 µM	11.8 µM	inactive	–	–
